Measurements from paper PMC8121805, “Discovery of first-in-class inhibitors of ASH1L histone methyltransferase with anti-leukemic activity” (Nature Communications, 2021).
“And” between values parts separate entries of the source, which are not always exact repeats. Equal values may be shown once.

How the values were obtained:
K562 cells [1] = assay: Annexin V apoptosis assay (flow cytometry); assay type: cell-based, human; details: for K562 % Annexin V/PI+ cells: 7 days
[2] = system: MV4;11 leukemic blasts (human CD45+ cells) in NSG mice; assay: Flow cytometry of hCD45+ cells in spleen and peripheral blood; assay type: in vivo, mouse
Procedure: Red blood cells were lysed with ACK lysis buffer (10-548E, Lonza). Up to 100,000 cells were washed in PBS (with 1% FBS) and stained with the anti–human CD45-BV421 antibody (563879, HI30, BD Biosciences) at 1:50 dilution for 30 min.

[3] = Effect on normal hematopoiesis: complete blood counts and blood parameters
Procedure: At the end point of the experiment blood samples were collected, processed and analyzed for complete blood counts (CBC) and to assess populations of myeloid (CD11b + /Gr-1 + ), B- (B220 + /CD19 + ), and T- (CD3 + ) cells using flow cytometry. […] The analysis of CBC and other blood parameters was performed by the ULAM Animal Diagnostic Laboratory using Element HT5 (HESKA).
(a) Analysis of blood cell counts in
blood cells, RBC – red blood cells, NEU – neutrophiles, LYM – lymphocytes. MONO –
monocytes, EOS – eosinophils, BAS - basophils, PLT - platelets) and other blood parameters (Hgb
– Hemoglobin, HCT- Hematocrit, MCV – Mean corpuscular volume, MCH - Mean corpuscular
hemoglobin, MCHC - Mean corpuscular hemoglobin concentration, RDW – Red cell distribution
(1 picture or pasted object on this page, not shown here)

[4] = system: luciferase-expressing MV4;11 cells in NSG mice; assay: MV4;11 xenotransplantation bioimaging model (bioluminescence); assay type: in vivo, mouse; details: for average radiance: individual mice, 30 mg/kg q.d. i.p.
MLL1 = MLL1 (Homo sapiens, UniProt Q03164); assay: HMT selectivity panel; details: MLL1, 50 µM compound
From the text: (§1) mM DTT and 0.01% Triton X-100 was used in experiments containing core histone.

DOT1L = DOT1L (Homo sapiens, UniProt Q8TEK3); assay: HMT selectivity panel; details: 50 µM compound
Procedure: as §1
experiments containing nucleosome.
G9a 5 core histone 0.05 mg/mL 1
GLP 5 core histone 0.05 mg/mL 1

K562 cells [5] = assay: Flow cytometry of CD11B expression (differentiation); assay type: cell-based, human; details: for K562 % CD11B+ cells: 7 days
Procedure: In addition, 1 × 10^5 cells per sample were stained with Zombie Aqua™ dye (1:100 dilution) for 15 min using the Zombie Aqua™ Fixable Viability Kit (Zombie Aqua™ Fixable Viability Kit, Biolegend®) […] and then for 30 min with an anti-CD11B-PE antibody (982606, ICRF44, Biolegend®) or anti-CD11B-Pacific Blue (101224, BD BioLegend) antibody at 1:50 dilution, according to the No-wash Sequential Staining Protocol described by the manufacturer (BioLegend, Zombie Aqua Fixable Viability Kit). Cells were washed twice with 500 µL PBS containing 1% FBS and resuspended in 200 µL PBS with 1% FBS.

SMYD1 = SMYD1 (Homo sapiens, UniProt Q8NB12); assay: HMT selectivity panel; details: SMYD1, 50 µM compound
From the text: (§2) Assay conditions for selectivity experiments with a panel of histone
as §1

NSD2 = NSD2 (Homo sapiens, UniProt O96028); assay: HMT selectivity panel; details: NSD2, 50 µM compound
From the text: as §1

MV4;11 cells = assay: RNA-seq global gene expression; assay type: cell-based, human
Procedure: Total RNA was prepared from cells collected after 7 days of treatment using RNeasy Mini Kit (74106, Qiagen). 2 µg of total RNA for each sample, as quantified using Nanodrop 2000 UV-Vis spectrophotometer, was submitted to the Next-Generation Sequencing Services of the University of Michigan for RNA Sequencing on the Illumina NovaSeq (S4) Sequencer. ERCC RNA Spike-In Mix (4456740, Invitrogen™) was provided to control for variability in RNA expression.
For analysis of RNA-seq data, Fastq generation was performed using Illumina’s bcl2fastq2 software (v2.17). The cutadapt [https://cutadapt.readthedocs.org/en/stable/] and FastQC [http://www.bioinformatics.babraham.ac.uk/projects/fastqc/] tools wrapped in Trim Galore [http://www.bioinformatics.babraham.ac.uk/projects/trim_galore/] were used to trim low quality bases (Q < 20) and adapter for raw sequences. Reads with length <20 bp were removed after trimming. […] Duplicated reads for pair-end data were removed by SAMtools (v1.5)[41]. Aligned reads were assembled using Cufflinks (v2.2.1) and assembled transcriptome catalog was used as an input for Cuffdiff2[42] to determine gene expression levels (FPKM, Fragments Per Kilobase per Million mapped reads) and differential expression between conditions using default options. Genes with p < 0.05 and fold-change >2 up or down were considered as differentially expressing genes to prepare the Volcano plot, which was generated using the “ggplot2” R package. Gene set analysis was performed and enrichment plots were generated using the “fgsea” package, with the test statistic generated by Cuffdiff2 used to rank genes for gene set enrichment analysis. Fgsea was run using the C2, C5, and C6 curated datasets from MSigDB[44]. Heatmaps for the top 20 ranked genes in the Leading Edge from a given enrichment analysis were generated with the “gplots” package [https://cran.r-project.org/web/packages/gplots/index.html].

SET7/9 = SET7/9 (Homo sapiens, UniProt Q8WTS6); assay: HMT selectivity panel; details: SET7/9, 50 µM compound
From the text: as §2, §1

PRMT6 = PRMT6 (Homo sapiens, UniProt Q96LA8); assay: HMT selectivity panel; details: PRMT6, 50 µM compound
From the text: as §1

[6] = individual mice, after last day of treatment, 30 mg/kg q.d. i.p., 30 mg/kg
[7] = Fig S12a, individual mice, AS-99 group
[8] = RNA-seq, MV4;11, 3 µM, seven days

Sequence of PRMT6 (Q96LA8 whole entry, species assumed): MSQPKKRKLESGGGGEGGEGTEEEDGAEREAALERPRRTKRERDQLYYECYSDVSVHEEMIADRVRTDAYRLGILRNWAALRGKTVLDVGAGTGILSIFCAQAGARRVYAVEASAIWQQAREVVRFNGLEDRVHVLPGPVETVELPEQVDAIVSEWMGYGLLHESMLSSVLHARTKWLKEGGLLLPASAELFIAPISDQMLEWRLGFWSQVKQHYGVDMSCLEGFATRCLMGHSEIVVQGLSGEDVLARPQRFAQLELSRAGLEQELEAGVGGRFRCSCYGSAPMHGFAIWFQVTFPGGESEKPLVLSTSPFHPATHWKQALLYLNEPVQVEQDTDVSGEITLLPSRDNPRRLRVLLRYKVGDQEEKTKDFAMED
Sequence of NSD2 (O96028 whole entry, species assumed): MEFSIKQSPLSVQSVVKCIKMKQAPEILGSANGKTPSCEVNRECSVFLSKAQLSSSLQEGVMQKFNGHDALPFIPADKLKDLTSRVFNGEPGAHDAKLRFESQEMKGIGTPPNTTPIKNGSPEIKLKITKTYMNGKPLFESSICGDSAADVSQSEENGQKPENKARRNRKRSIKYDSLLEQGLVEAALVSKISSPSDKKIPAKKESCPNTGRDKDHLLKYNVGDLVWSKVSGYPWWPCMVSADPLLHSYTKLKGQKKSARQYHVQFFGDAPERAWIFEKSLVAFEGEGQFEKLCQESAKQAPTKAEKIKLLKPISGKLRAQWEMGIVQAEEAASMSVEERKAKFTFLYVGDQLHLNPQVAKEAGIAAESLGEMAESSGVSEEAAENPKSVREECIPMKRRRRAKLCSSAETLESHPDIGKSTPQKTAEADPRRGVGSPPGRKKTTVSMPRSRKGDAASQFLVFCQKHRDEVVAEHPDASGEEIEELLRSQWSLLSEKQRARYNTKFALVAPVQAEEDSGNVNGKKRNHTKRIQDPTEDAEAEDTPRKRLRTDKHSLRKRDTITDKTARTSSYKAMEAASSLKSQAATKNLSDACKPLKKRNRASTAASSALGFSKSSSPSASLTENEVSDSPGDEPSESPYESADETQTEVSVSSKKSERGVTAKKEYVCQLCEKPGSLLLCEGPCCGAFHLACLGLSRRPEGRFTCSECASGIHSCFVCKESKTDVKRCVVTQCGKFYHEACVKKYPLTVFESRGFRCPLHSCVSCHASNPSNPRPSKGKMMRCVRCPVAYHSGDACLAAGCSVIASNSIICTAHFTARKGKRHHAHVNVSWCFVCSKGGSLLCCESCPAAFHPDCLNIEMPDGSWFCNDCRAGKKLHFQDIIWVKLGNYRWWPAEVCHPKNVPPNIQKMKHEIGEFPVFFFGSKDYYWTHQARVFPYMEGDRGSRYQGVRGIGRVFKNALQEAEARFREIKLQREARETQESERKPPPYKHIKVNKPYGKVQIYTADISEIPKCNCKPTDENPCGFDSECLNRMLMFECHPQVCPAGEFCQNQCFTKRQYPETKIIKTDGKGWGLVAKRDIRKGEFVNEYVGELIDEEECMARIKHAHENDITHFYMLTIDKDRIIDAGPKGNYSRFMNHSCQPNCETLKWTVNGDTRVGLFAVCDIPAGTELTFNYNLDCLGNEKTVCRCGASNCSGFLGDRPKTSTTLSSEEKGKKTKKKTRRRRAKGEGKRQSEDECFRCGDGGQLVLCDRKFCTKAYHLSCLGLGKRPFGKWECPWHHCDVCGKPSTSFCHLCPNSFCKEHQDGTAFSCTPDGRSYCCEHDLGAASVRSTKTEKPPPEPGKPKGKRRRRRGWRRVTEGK
Sequence of SET7/9 (Q8WTS6 whole entry, species assumed): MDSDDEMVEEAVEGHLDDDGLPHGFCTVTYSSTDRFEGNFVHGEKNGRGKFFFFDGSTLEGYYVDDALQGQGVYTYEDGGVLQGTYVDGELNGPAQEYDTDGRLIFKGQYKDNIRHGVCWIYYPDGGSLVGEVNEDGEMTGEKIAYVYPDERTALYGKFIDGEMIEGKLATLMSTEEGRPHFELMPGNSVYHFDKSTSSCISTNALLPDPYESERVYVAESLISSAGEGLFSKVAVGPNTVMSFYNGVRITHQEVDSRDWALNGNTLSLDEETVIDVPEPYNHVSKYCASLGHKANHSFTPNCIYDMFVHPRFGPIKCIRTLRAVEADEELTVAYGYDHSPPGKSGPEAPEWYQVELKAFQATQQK
Sequence of DOT1L (Q8TEK3 whole entry, species assumed): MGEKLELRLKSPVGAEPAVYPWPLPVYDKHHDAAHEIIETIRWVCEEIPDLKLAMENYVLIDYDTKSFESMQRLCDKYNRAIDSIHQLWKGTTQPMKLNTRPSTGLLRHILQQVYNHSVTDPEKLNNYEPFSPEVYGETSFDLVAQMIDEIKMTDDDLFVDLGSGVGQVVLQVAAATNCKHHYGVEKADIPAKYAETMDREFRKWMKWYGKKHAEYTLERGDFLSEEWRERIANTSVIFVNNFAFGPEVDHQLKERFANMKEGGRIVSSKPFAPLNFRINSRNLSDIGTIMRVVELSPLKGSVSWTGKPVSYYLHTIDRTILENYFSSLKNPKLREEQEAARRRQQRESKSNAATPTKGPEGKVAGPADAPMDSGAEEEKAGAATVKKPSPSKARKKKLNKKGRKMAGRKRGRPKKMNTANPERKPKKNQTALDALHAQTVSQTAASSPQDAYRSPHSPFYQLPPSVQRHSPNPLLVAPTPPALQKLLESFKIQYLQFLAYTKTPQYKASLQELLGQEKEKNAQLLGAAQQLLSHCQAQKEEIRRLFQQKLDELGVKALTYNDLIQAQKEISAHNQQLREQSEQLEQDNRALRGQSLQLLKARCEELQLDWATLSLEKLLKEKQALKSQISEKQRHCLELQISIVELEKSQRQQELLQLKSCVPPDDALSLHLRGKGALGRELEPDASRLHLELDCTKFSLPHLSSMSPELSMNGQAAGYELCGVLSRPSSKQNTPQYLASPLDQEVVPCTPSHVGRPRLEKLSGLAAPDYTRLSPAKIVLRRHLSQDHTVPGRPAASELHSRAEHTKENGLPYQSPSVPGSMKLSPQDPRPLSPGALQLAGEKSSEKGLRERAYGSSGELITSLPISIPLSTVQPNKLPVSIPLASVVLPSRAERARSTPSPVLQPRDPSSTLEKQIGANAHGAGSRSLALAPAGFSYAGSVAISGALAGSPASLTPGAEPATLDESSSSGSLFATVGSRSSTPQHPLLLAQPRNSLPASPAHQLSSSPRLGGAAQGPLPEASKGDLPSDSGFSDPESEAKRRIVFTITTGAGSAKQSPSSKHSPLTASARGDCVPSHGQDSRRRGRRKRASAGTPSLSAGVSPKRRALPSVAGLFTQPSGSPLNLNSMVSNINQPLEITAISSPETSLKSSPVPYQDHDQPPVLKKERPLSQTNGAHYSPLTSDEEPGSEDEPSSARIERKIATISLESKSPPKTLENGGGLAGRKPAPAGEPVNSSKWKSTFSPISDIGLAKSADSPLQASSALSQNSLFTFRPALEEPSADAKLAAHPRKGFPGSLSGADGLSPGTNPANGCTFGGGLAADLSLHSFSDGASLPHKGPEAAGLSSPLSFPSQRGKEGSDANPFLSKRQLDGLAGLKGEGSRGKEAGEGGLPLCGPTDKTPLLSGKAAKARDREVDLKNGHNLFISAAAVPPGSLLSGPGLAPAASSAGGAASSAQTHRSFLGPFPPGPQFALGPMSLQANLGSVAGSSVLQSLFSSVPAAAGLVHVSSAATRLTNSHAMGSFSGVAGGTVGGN
Sequence of SMYD1 (Q8NB12 whole entry, species assumed): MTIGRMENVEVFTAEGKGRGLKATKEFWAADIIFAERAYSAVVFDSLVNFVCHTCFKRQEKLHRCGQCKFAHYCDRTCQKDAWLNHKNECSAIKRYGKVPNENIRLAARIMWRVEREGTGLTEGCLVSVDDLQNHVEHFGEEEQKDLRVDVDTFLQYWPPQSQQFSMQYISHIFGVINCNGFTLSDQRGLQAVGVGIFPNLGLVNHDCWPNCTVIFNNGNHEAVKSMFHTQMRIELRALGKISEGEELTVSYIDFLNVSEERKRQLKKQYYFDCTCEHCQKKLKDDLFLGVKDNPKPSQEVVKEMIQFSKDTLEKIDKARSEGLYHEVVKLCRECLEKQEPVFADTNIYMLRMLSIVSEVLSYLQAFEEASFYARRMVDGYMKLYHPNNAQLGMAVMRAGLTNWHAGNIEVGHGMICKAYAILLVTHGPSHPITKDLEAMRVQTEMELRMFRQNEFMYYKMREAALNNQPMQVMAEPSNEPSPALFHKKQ

In the case of `CN1CC(C(=O)NCc2ccc3c(-c4cccc(C(N)=S)c4)cn(C4CCN(S(=O)(=O)C(F)(F)F)CC4)c3c2)C1` [AS-99], the “apoptosis in K562 cells” value (K562 cells [1]) is reported as “not in the K562 cells”, the “K562 % Annexin V/PI+ cells” value (K562 cells [1]; 2 uM) is reported as 10.85% and 7.41% and 3.78% and the “K562 % Annexin V/PI+ cells” value (K562 cells [1]; 4 uM) is reported as 7.07% and 5.34% and 5.33%. For the same compound, the “K562 % Annexin V/PI+ cells” value (K562 cells [1]; 6 uM) was 4.92% and 4.78% and 6.63%, the “K562 % Annexin V/PI+ cells” value (K562 cells [1]; 8 uM) was 5.64% and 10.26% and 7.32% and the “hCD45+ % in PB” value [2, 6] was 6.6% and 0.44% and 0.41% and 0.23% and 0.21% and 0.19%. The “hCD45+ % in spleen” value [2, 6] was 2.39% and 0.79% and 1.14% and 1.53% and 0.61% and 1.12% and 0.041%, the “level of leukemic blasts (human CD45+ cells) in peripheral blood and spleen” value ([2]; last day of treatment) was “significantly lower level” and the BAS [3, 7] was 0.02 x 103/uL (2×) and 0.03 x 103/uL (4×) and 0.01 x 103/uL (2×) and 0 x 103/uL. The EOS [3, 7] was 270 µL⁻¹ and 470 µL⁻¹ and 320 µL⁻¹ and 390 µL⁻¹ and 650 µL⁻¹ and 300 µL⁻¹ and 100 µL⁻¹ and 450 µL⁻¹ and 360 µL⁻¹, the HCT [3, 7] was 41.9% and 39.7% and 28.7% and 46% and 40.3% and 29.4% and 10.7% and 42.8% and 41.4% and the HGB [3, 7] was 13.7 g/dL and 13.1 g/dL and 9.8 g/dL and 15.6 g/dL and 13.9 g/dL and 10.1 g/dL and 3.6 g/dL and 14.6 g/dL and 14 g/dL. The LYM [3, 7] was 4070 µL⁻¹ and 5890 µL⁻¹ and 4140 µL⁻¹ and 5390 µL⁻¹ and 6000 µL⁻¹ and 3920 µL⁻¹ and 1230 µL⁻¹ and 6280 µL⁻¹ and 5970 µL⁻¹, the MCH [3, 7] was 14.8 Pg and 15 Pg (2×) and 15.6 Pg (3×) and 14.9 Pg and 15.4 Pg and 16.2 Pg and the MCHC [3, 7] was 32.8 g/dL and 33.1 g/dL and 34.1 g/dL (2×) and 33.9 g/dL and 34.4 g/dL (2×) and 34 g/dL and 33.8 g/dL. For the same compound, the MCV [3, 7] was 45.2 fL (3×) and 45.4 fL and 45.8 fL and 44 fL and 43.6 fL and 45.7 fL and 48 fL, the MONO [3, 7] was 0.17 x 103/uL and 0.23 x 103/uL (2×) and 0.12 x 103/uL and 0.28 x 103/uL (2×) and 0.11 x 103/uL and 0.05 x 103/uL and 0.2 x 103/uL and the MPV [3, 7] was 5 fL (2×) and 5.5 fL and 5.9 fL and 5.1 fL and 5.4 fL (2×) and 5.6 fL and 4.8 fL. For the same compound, the NEU [3, 7] was 970 µL⁻¹ and 1680 µL⁻¹ and 1330 µL⁻¹ and 2070 µL⁻¹ and 1910 µL⁻¹ and 1210 µL⁻¹ and 630 µL⁻¹ and 1870 µL⁻¹ and 1770 µL⁻¹, the PLT [3, 7] was 1548 K/uL and 1435 K/uL and 1241 K/uL and 1545 K/uL and 1340 K/uL and 938 K/uL and 317 K/uL and 1303 K/uL and 1383 K/uL and the RBC [3, 7] was 9.27 M/uL and 8.74 M/uL and 6.26 M/uL and 10.46 M/uL and 9.24 M/uL and 6.5 M/uL and 2.36 M/uL and 9.37 M/uL and 8.63 M/uL. For the same compound, the RDW [3, 7] was 14.4% and 15.6% and 15.4% and 13.5% and 14.9% and 13.9% and 14.7% and 14.8% and 18.3%, the WBC [3, 7] was 5.5 k/uL and 8.3 k/uL and 5.92 k/uL and 8.1 k/uL and 8.87 k/uL and 5.55 k/uL and 2.01 k/uL and 8.91 k/uL and 8.33 k/uL and the “blood counts and other blood parameters versus vehicle” value ([3]; normal mice, 30 mg/kg, i.p., q.d., 14 days) was “no significant difference”. For the same compound, the “reduction in the bioluminescence signal versus vehicle” value ([4]; 30 mg/kg, i.p., q.d., 14 days) was 65%, the average radiance ([4]; day 6 after transplantation (start of treatment)) was 6110 p/s/cm2/sr and 4700 p/s/cm2/sr and 4630 p/s/cm2/sr and 3760 p/s/cm2/sr and 10800 p/s/cm2/sr and 52500 p/s/cm2/sr and 8750 p/s/cm2/sr and the average radiance ([4]; day 13 after transplantation) was 199000 p/s/cm2/sr and 275000 p/s/cm2/sr and 78900 p/s/cm2/sr and 62500 p/s/cm2/sr and 231000 p/s/cm2/sr and 5680 p/s/cm2/sr and 144000 p/s/cm2/sr. For the same compound, the average radiance ([4]; day 19 after transplantation (last day of treatment)) was 1090000 p/s/cm2/sr (2×) and 1280000 p/s/cm2/sr and 524000 p/s/cm2/sr and 386000 p/s/cm2/sr and 8110 p/s/cm2/sr and 9660 p/s/cm2/sr, the activity at 50 µM (MLL1) was 50% and the “% activity” value (MLL1; 50 µM) was 69.7738%. For the same compound, the activity at 50 µM (DOT1L) was 107%, the “% activity” value (DOT1L; 50 µM) was 93.8212% and the “K562 % CD11B+ cells” value (K562 cells [5]; 2 uM) was 0.43% and 0.58% and 0.36%. For the same compound, the “K562 % CD11B+ cells” value (K562 cells [5]; 4 uM) was 0.34% and 0.52% and 0.4%, the “K562 % CD11B+ cells” value (K562 cells [5]; 6 uM) was 0.56% and 0.39% and 0.38% and the “K562 % CD11B+ cells” value (K562 cells [5]; 8 uM) was 0.73% and 0.97% and 0.76%. The “differentiation effects in K562” value (K562 cells [5]; control leukemia cell line) was “not observed”, the activity at 50 µM (SMYD1) was 81.1% and the “% activity” value (SMYD1; 50 µM) was 68.7304%. For the same compound, the activity at 50 µM (NSD2) was 92.1%, the “% activity” value (NSD2; 50 µM) was 101.756% and the “GSEA: transcriptional programs driven by MLL fusion proteins and HOXA9” value (MV4;11 cells; MV4;11) was “downregulation of transcriptional programs driven by MLL fusion proteins and HOXA9”. For the same compound, the “number of downregulated genes” value (MV4;11 cells; [8]) was 323, the “number of up-regulated genes” value (MV4;11 cells; [8]) was 75 and the activity at 50 µM (SET7/9) was 81.7%. The “% activity” value (SET7/9; 50 µM) was 85.3173%, the activity at 50 µM (PRMT6) was 105% and the “% activity” value (PRMT6; 50 µM) was 107.332%.
